The text below walks through data of patent US9981972B2, “N-hydroxy bicyclic hydantoin carbamates as tools for identification of serine hydrolase targets” (ABIDE THERAPEUTICS, INC., priority 2014, dated 2018).

For assay [1], the target named is T1, ABHD4 (Homo sapiens, UniProt Q8TB40).
T1 sequence (Q8TB40 1-342): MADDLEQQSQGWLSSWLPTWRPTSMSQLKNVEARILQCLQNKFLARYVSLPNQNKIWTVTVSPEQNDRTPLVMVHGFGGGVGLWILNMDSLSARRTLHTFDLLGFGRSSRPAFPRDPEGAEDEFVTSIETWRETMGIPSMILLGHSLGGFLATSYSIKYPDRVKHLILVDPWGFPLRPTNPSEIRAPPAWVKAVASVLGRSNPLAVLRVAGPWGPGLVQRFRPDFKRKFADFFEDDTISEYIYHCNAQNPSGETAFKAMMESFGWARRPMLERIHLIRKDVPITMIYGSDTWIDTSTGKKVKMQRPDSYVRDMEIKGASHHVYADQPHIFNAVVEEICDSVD
Nature of the assay: Gel-based competitive ABPP, recombinant enzyme in transfected HEK293T cell lysates. In kind it is biochemical. More on the design: myc-his; expressed in transfected cells; host or cells: HEK293T, transient transfection, pcDNA3.1/myc-his; lysate used in vitro. Conditions: competitive ABPP with FP-Rh, 30 min 37° C. The method, then:
(§1) HEK293T cells were seeded at 2×10^5 per well on 6 well plates and grown for 48 h. They were then transfected with mABHD3 (pCMV-Sport6), hABHD4 (pcDNA3.1/myc-his), hPPT1 (pCMV6-XL5), or hPPT1 S115A (pCMV6-XL5), by incubating 0.5 μg of DNA with 3 μL of PEI MAX (1 mg/mL, Polysciences, Inc) in serum-free DMEM for 30 min, then adding them to cells. After 48 h cells were either treated with compound in situ, as described above, or harvested for in vitro studies. The […] PPT1 mutation was introduced using QuikChange II Site Directed Mutagenesis Kit (Agilent) with the following primers: […]
Human ABHD3 and ABHD4 were recombinantly expressed by transient transfection in HEK293T cells, and the cell lysates were combined to provide a convenient assay for monitor inhibition of both enzymes by gel-based ABPP (see FIG. 8A). […]

In assay [2] the target is T2, PPT1 (wild type, S115A) (Homo sapiens, UniProt P50897).
T2 construct: expressed in transfected cells; host or cells: HEK293T
T2 sequence (P50897 28-306 S115A): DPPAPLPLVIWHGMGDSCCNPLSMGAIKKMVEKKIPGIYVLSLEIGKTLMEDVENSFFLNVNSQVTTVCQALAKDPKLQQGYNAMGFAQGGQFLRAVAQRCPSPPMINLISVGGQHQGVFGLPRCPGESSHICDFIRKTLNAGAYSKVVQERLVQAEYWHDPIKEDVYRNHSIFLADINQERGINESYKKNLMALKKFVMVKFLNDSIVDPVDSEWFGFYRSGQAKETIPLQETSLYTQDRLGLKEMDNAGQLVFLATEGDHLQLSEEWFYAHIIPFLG
Briefly: Labeling of recombinant PPT1 by probes (gel-based ABPP, isoTOP-ABPP). In kind it is biochemical. As to conditions: transfected HEK293T cell lysates, gel-based ABPP. The method, then:
as §1
(§2) Whole cell lysates (500 μL, 1.5 mg/mL) of hPPT1 transfected HEK239Ts were processed for MS analysis using the previously described isoTOP-ABPP protocol (Weerapana et al., Nature 468, 790-795, 2010). In brief, for analysis of Compound 39-modified peptides, proteomes were split into two fractions, to which Compound 39 (5 μM, 60 min) or DMSO were added. […] MS1 peaks for probe-labeled quantified peptides were extracted with Xcalibur Qual Browser 2.2 (Thermo Scientific). […]
(§3) HEK293T cells were transfected with wild type and an S115A mutant of PPT1, lysed, and treated with Compound 39 followed by CuAAC conjugation to an azide-Rh tag, PNGaseF treatment, and analysis by SDS-PAGE. […] S115 was identified as the site of Compound 39 labeling on PPT1 using a quantitative MS method termed isoTOP-ABPP. […]

Assay [3] relates to PPT1 (wild type, S115A). The description is as above. It is filed as biochemical, human. As to conditions: transfected HEK293T lysates, CuAAC to azide-Rh, PNGaseF. How it is done:
as §1, §2, §3

Assay [4] deals with SHs in PC3 cell proteomes. Briefly: Probe-versus-probe ABPP-SILAC, PC3 proteomes. It is filed as biochemical, human. Conditions: Compound 39 5 μM, 1 h versus FP-biotin 2.5 μM. How it is done: Isotopically heavy- and light-labeled PC3 cells were treated with Compound 37 (1 μM) or DMSO for 4 h, respectively, lysed, and then treated Compound 39 (5 μM, 1 h). […] Among the handful of additional SH targets of Compound 37 were ABHD6 and PLA2G7, which were expected based on our ABPP-SILAC studies with FP-biotin (see FIG. 9), and protein-palmitoyl thioesterase 1 (PPT1), which was inhibited by more than 90%. […] Accordingly, PPT1 was not detected in our previous ABPP-SILAC studies with FP-biotin (see FIG. 9). The selective enrichment of PPT1 by Compound 39 was confirmed by performing a probe-versus-probe ABPP-SILAC study, where heavy and light PC3 proteomes were treated with FP-biotin (2.5 μM, 1 h) and Compound 39 (5 μM, 1 h), respectively. PPT1, along with two additional SHs LIPA and DDHD2, were preferentially enriched by Compound 39 over FP-biotin, while most of the other SHs were more strongly enriched by FP-biotin (see FIG. 13). A handful of SHs corresponding mostly to enzymes that were identified in our ABPP-SILAC studies as targets of Compound 37 (see FIGS. 9 and 12), were equivalently enriched by Compound 39 and FP-biotin (see FIG. 13).

Entries after “also recorded” stand apart in the source; their conditions may differ.

Consider `C#CCOc1ccc(N2CCN(C(=O)ON3C(=O)C4CN(Cc5ccc(Oc6ccccc6)cc5)CCN4C3=O)CC2)cc1` (stereo not shown) [Compound 39, 1,3-dioxo-7-(4-phenoxybenzyl)hexahydroimidazo[1,5-a]pyrazin-2(3H)-yl 4-(4-(prop-2-yn-1-yloxy)phenyl)piperazine-1-carboxylate], for which the “inhibition of ABHD4 in transfected HEK293T cell proteome” value in assay [1] is listed as “inhibited ABHD4 in transfected HEK293T cell proteome in a concentration-dependent manner”. The “probe reactivity with recombinant hPPT1” value in assay [2] is “reacts; also recorded: reacted with PPT1”. In assay [3], the “labeling of wild type PPT1 versus S115A mutant” value is “labels recombinant wild type PPT1, but not the catalytic serine mutant (S115A); also recorded: strong labeling of wild-type PPT1, but not the S115A mutant”. The “SHs preferentially enriched by Compound 39 over FP-biotin” value in assay [4] is “PPT1 and LIPA and DDHD2”.
